Like-named read-outs stand apart in the source and are kept apart here.
Test: Ex vivo biodistribution of 177Lu-labeled ligands in PC-3 tumor-bearing mice
Details: mouse; for tissue to tissue ratio at 1 h / tissue uptake at 1 h: 1 h pi; for tissue to tissue ratio at 4 h / tissue uptake at 4 h: 4 h pi; for tissue to tissue ratio at 24 h / tissue uptake at 24 h: 24 h pi; for tissue to tissue ratio at 120 h / tissue uptake at 120 h: 120 h pi; for tissue uptake at 1 h / tissue uptake at 4 h / tissue uptake at 24 h / tissue uptake at 72 h / tissue uptake at 120 h: intravenous
Method: SPECT/CT imaging was conducted using an MI Labs (Houten, The Netherlands) U-SPECT-II/CT scanner with a custom-made ultra-high sensitivity big mouse collimator (2 mm pinhole size) following published procedure. The experiments were obtained in accordance with the same protocol established in the PET/CT imaging and ex vivo biodistributions section. The mice were used for SPECT/CT imaging and ex vivo biodistributions studies once the tumors reached a diameter of 5–8 mm. PC-3 tumor-bearing mice were sedated (2.5% isoflurane in O2) and injected with 31.4–36.9 MBq of the ^177Lu-labeled ligand through a lateral caudal tail vein. The mouse was imaged at 1, 4, 24, 72, and 120 h pi. At each time point, a 5 min CT scan was performed with 615 μA and 60 kV parameters for localization and attenuation, followed by two 30 min static SPECT scans in list mode with an energy window centered around 208 keV. The U-SPECT II software was used to reconstruct data, and the images were decay corrected to the time of injection with PMOD v 3.402 (PMOD Technologies GmbH, Fallanden, Switzerland).
For ex vivo biodistribution studies, the mice were injected with ~3–5 MBq of the ^177Lu-labeled ligand (n = 5). At 1, 4, 24, 72, and 120 h post-injection, the mice were anesthetized with 2% isoflurane, euthanized by CO2 inhalation, and the tissues/organs of interest were […] for radioactivity counting. The blocking study was performed at 1 h pi via co-injection of the ^177Lu-labeled ligand with 100 μg of [D-Phe^6,Leu-NHEt^13,des-Met^14]Bombesin(6–14).

[1] = male, NOD.Cg-Rag1^tm1Mom Il2rg^tm1Wjl/SzJ (NRG), tumor/blood, iv, total radioactivity, n = 5, read-out: Tumor/blood uptake ratio
[2] = male, NOD.Cg-Rag1^tm1Mom Il2rg^tm1Wjl/SzJ (NRG), tumor/kidney, iv, total radioactivity, n = 5, read-out: Tumor/kidney uptake ratio
[3] = male, NOD.Cg-Rag1^tm1Mom Il2rg^tm1Wjl/SzJ (NRG), tumor/muscle, iv, total radioactivity, n = 5, read-out: Tumor/muscle uptake ratio
[4] = male, NOD.Cg-Rag1^tm1Mom Il2rg^tm1Wjl/SzJ (NRG), tumor/pancreas, iv, total radioactivity, n = 5, read-out: Tumor/pancreas uptake ratio
[5] = PC-3 tumor, n = 5, read-out: PC-3 tumor uptake
[6] = adrenal glands, n = 5, read-out: Adrenal glands uptake
[7] = blood, n = 5, read-out: Blood uptake
[8] = bone, n = 5, read-out: Bone uptake
[9] = brain, n = 5, read-out: Brain uptake
[10] = fat, n = 5, read-out: Fat uptake
[11] = heart, n = 5, read-out: Heart uptake

tissue uptake (male, NOD.Cg-Rag1^tm1Mom Il2rg^tm1Wjl/SzJ (NRG), iv, total radioactivity, all time points, read-out: uptake in all other collected organs/tissues (other than tumor, pancreas, kidney)): < 1 %ID/g | tissue to tissue ratio at 1 h (male, NOD.Cg-Rag1^tm1Mom Il2rg^tm1Wjl/SzJ (NRG), tumor/blood, iv, total radioactivity, blocked (100 µg GRPR antagonist co-injected), read-out: Tumor/blood uptake ratio): 6.37 ± 1.92 | tissue to tissue ratio at 1 h [1]: 16.1 ± 2.2 | tissue to tissue ratio at 4 h [1]: 144 ± 33.5 | tissue to tissue ratio at 24 h [1]: 813 ± 203 | tissue to tissue ratio at 72 h (male, NOD.Cg-Rag1^tm1Mom Il2rg^tm1Wjl/SzJ (NRG), tumor/blood, iv, total radioactivity, 72 h pi, n = 5, read-out: Tumor/blood uptake ratio): 1120 ± 440 | tissue to tissue ratio at 120 h [1]: 1630 ± 548 | tissue to tissue ratio at 1 h (male, NOD.Cg-Rag1^tm1Mom Il2rg^tm1Wjl/SzJ (NRG), tumor/kidney, iv, total radioactivity, blocked (100 µg GRPR antagonist co-injected), read-out: Tumor/kidney uptake ratio): 0.89 ± 0.22 | tissue to tissue ratio at 1 h [2]: 2.65 ± 0.64 | tissue to tissue ratio at 4 h [2]: 2.96 ± 0.3 | tissue to tissue ratio at 24 h [2]: 5.67 ± 1.43 | tissue to tissue ratio at 72 h (male, NOD.Cg-Rag1^tm1Mom Il2rg^tm1Wjl/SzJ (NRG), tumor/kidney, iv, total radioactivity, 72 h pi, n = 5, read-out: Tumor/kidney uptake ratio): 8.43 ± 2.89 | tissue to tissue ratio at 120 h [2]: 14.1 ± 4.53 | tissue to tissue ratio at 1 h (male, NOD.Cg-Rag1^tm1Mom Il2rg^tm1Wjl/SzJ (NRG), tumor/muscle, iv, total radioactivity, blocked (100 µg GRPR antagonist co-injected), read-out: Tumor/muscle uptake ratio): 23.2 ± 5.2 | tissue to tissue ratio at 1 h [3]: 78.3 ± 13 | tissue to tissue ratio at 4 h [3]: 196 ± 53.1 | tissue to tissue ratio at 24 h [3]: 520 ± 113 | tissue to tissue ratio at 72 h (male, NOD.Cg-Rag1^tm1Mom Il2rg^tm1Wjl/SzJ (NRG), tumor/muscle, iv, total radioactivity, 72 h pi, n = 5, read-out: Tumor/muscle uptake ratio): 522 ± 189 | tissue to tissue ratio at 120 h [3]: 744 ± 179 | tissue to tissue ratio at 1 h (male, NOD.Cg-Rag1^tm1Mom Il2rg^tm1Wjl/SzJ (NRG), tumor/pancreas, iv, total radioactivity, blocked (100 µg GRPR antagonist co-injected), read-out: Tumor/pancreas uptake ratio): 6.72 ± 2.24 | tissue to tissue ratio at 1 h [4]: 3.57 ± 0.42 | tissue to tissue ratio at 4 h [4]: 4.91 ± 0.14 | tissue to tissue ratio at 24 h [4]: 5.7 ± 0.81 | tissue to tissue ratio at 72 h (male, NOD.Cg-Rag1^tm1Mom Il2rg^tm1Wjl/SzJ (NRG), tumor/pancreas, iv, total radioactivity, 72 h pi, n = 5, read-out: Tumor/pancreas uptake ratio): 8.37 ± 3.35 | tissue to tissue ratio at 120 h [4]: 17.1 ± 2.1 | tissue uptake at 1 h (PC-3 tumor, 100 ug, blocked (100 µg GRPR antagonist co-injected), read-out: PC-3 tumor uptake): 3.25 ± 0.44 %ID/g | tissue uptake at 1 h [5]: 9.59 ± 3.37 %ID/g | tissue uptake at 4 h [5]: 8.38 ± 0.19 %ID/g | tissue uptake at 24 h [5]: 5.78 ± 0.4 %ID/g | tissue uptake at 72 h (PC-3 tumor, 72 h pi, n = 5, read-out: PC-3 tumor uptake): 2.74 ± 0.85 %ID/g | tissue uptake at 120 h [5]: 2.19 ± 0.59 %ID/g | tissue uptake at 72 h (PC-3 tumor, after 72 h pi, read-out: tumor uptake): < 3 %ID/g | tissue uptake at 1 h (adrenal glands, 100 ug, blocked (100 µg GRPR antagonist co-injected), read-out: Adrenal glands uptake): 0.27 ± 0.06 %ID/g | tissue uptake at 1 h [6]: 0.46 ± 0.15 %ID/g | tissue uptake at 4 h [6]: 0.33 ± 0.15 %ID/g | tissue uptake at 24 h [6]: 0.36 ± 0.3 %ID/g | tissue uptake at 72 h (adrenal glands, 72 h pi, n = 5, read-out: Adrenal glands uptake): 0.13 ± 0.07 %ID/g | tissue uptake at 120 h [6]: 0.1 ± 0.02 %ID/g | tissue uptake at 1 h (blood, 100 ug, blocked (100 µg GRPR antagonist co-injected), read-out: Blood uptake): 0.43 ± 0.23 %ID/g | tissue uptake at 1 h [7]: 0.59 ± 0.18 %ID/g | tissue uptake at 4 h [7]: 0.06 ± 0.02 %ID/g | tissue uptake at 24 h [7]: 0.01 %ID/g | tissue uptake at 1 h (bone, 100 ug, blocked (100 µg GRPR antagonist co-injected), read-out: Bone uptake): 0.12 ± 0.04 %ID/g | tissue uptake at 1 h [8]: 0.23 ± 0.06 %ID/g | tissue uptake at 4 h [8]: 0.1 ± 0.08 %ID/g | tissue uptake at 24 h [8]: 0.02 ± 0.01 %ID/g | tissue uptake at 72 h (bone, 72 h pi, n = 5, read-out: Bone uptake): 0.02 %ID/g | tissue uptake at 120 h [8]: 0.02 %ID/g | tissue uptake at 1 h (brain, 100 ug, blocked (100 µg GRPR antagonist co-injected), read-out: Brain uptake): 0.02 ± 0.01 %ID/g | tissue uptake at 1 h [9]: 0.02 ± 0.01 %ID/g | tissue uptake at 4 h [9]: 0.01 %ID/g | tissue uptake at 1 h (fat, 100 ug, blocked (100 µg GRPR antagonist co-injected), read-out: Fat uptake): 0.06 ± 0.03 %ID/g | tissue uptake at 1 h [10]: 0.08 ± 0.02 %ID/g | tissue uptake at 4 h [10]: 0.02 ± 0.01 %ID/g | tissue uptake at 24 h [10]: 0.01 %ID/g | tissue uptake at 120 h [10]: 0.01 ± 0.01 %ID/g | tissue uptake at 1 h (heart, 100 ug, blocked (100 µg GRPR antagonist co-injected), read-out: Heart uptake): 0.13 ± 0.05 %ID/g | tissue uptake at 1 h [11]: 0.19 ± 0.05 %ID/g | tissue uptake at 4 h [11]: 0.06 ± 0.02 %ID/g | tissue uptake at 24 h [11]: 0.02 %ID/g
Compound: CC(C)C[C@H](NC(=O)[C@H](Cc1cnc[nH]1)N(C)C(=O)CNC(=O)[C@@H](NC(=O)[C@H](C)NC(=O)[C@H](Cc1c[nH]c2ccccc12)NC(=O)[C@H](CCC(N)=O)NC(=O)[C@@H](Cc1ccccc1)NC(=O)CN1CCC(NC(=O)CN2CCN(CC(=O)O)CCN(CC(=O)O)CCN(CC(=O)O)CC2)CC1)C(C)(C)C)C(=O)N1CC(F)(F)C[C@H]1C(N)=O [[^177Lu]Lu-LW02060, metal not drawn]

Source: PMC11859184, “Synthesis and Evaluation of ^68Ga- and ^177Lu-Labeled [diF-Pro^14]Bombesin(6−14) Analogs for Detection and Radioligand Therapy of Gastrin-Releasing Peptide Receptor-Expressing Cancer” (Pharmaceuticals, 2025)
